Test results published in patent US20250177372A1, “LIQUID FORMULATIONS OF INDACATEROL AND GLYCOPYRRONIUM” (AeroRx Therapeutics, Inc., priority 2022, published 2025).
Structures can show the parent of a compound that is named as a salt.

Columns and labels:
Assay type in all cases: physicochemical
[1] = Aqueous solubility of indacaterol and indacaterol maleate in water (orbital shaker, UV-Vis); conditions: for pH after dissolution / Solubility: water, initial pH 7.1; for Solubility: shaken 12 hours, UV-Vis
Experimental: Solubility studies of indacaterol and indacaterol maleate were performed using an orbital shaker method. Excess indacaterol was placed in a glass vial with water. The initial pH of the water was 7.1. Samples were shaken for 12 hours to ensure equilibrium was reached. After the 12 hour period, the vial was removed from the shaker and allowed to settle for 30 minutes. Then, the sample was filtered using a 0.2 μM polyvinylidene fluoride (PVDF) syringe filter; the initial 0.5 mL of filtrate was discarded. The pH was then measured and the concentration of the indacaterol was evaluated by UV-Vis.

[2] = Aqueous solubility of indacaterol with varying pH in citrate buffer (orbital shaker, UV-Vis); conditions: aqueous citrate buffer 5 mM
Experimental: Solubility studies of indacaterol in solutions of varying pH were performed using an orbital shaker method. Excess indacaterol was placed in a glass vial with an aqueous citrate buffer (5 mM; prepared from citric acid and NaOH). Samples were shaken for 12 to 24 hours to ensure equilibrium was reached before checking and adjusting the pH (using 1 M HCl and NaOH) and placing samples back into the orbital shaker for an additional 12 hours. This process was repeated up to two times or until the desired pH was obtained. After the desired pH was reached, the vial was removed from the shaker and allowed to settle for 30 minutes. Then, the sample was filtered using a 0.2 μM PVDF syringe filter; the initial 0.5 mL of filtrate was discarded. The pH was then measured and the concentration of the indacaterol was evaluated by UV-Vis.

[3] = Forced degradation study of indacaterol (RP-HPLC impurities); conditions: for Total Impurities* (%): includes 2% process-related impurity
Experimental: A degraded sample panel was prepared to identify indacaterol degradation pathways and products. Stress conditions are outlined in Table 1.
One of 6N HCl, 6N NaOH, or 30% H2O2 (aqueous) were added to a suitable volume of 100 μg/mL indacaterol and diluted with water:methanol (50:50, v:v) to achieve a final indacaterol concentration of 10 μg/mL. Samples were stored at ambient temperature. At specified time points, acidic and basic hydrolysis (1 N HCl and 1 N NaOH, respectively) samples were neutralized (H2O2 samples were not quenched) and reversed-phase high performance liquid chromatography (RP-HPLC) was used to quantitate indacaterol impurities. All samples were diluted to 5 μg/mL prior to RP-HPLC analysis. Method parameters are outlined in Table 2.
Total impurities (process-related and product-related) of the indacaterol forced degradation study samples are presented in Table 3. Forced degradation impurity peaks were identified based on their retention time relative (RRT) to the indacaterol peak. Impurity peaks already present in the indacaterol (control group at T0; total peak area approximately 2%) were considered process-related, while additional peaks formed after the degradation were considered product-related.

[4] = Acidic Hydrolysis (1M HCl), 15 h, ambient temperature
[5] = Basic Hydrolysis (1M NaOH), 15 h, ambient temperature

## CCc1cc2c(cc1CC)CC(NC[C@H](O)c1ccc(O)c3[nH]c(=O)ccc13)C2 [Indacaterol maleate, indacaterol maleate]
[1]
  pH after dissolution: 3.30
  Solubility: 230 µg/mL

## CCc1cc2c(cc1CC)CC(NC[C@H](O)c1ccc(O)c3[nH]c(=O)ccc13)C2 [Indacaterol, (R)-5-[2-(5,6-Diethylindan-2-ylamino)-1-hydroxyethyl]-8hydroxy-1H-quinolin-2-one]
[1]; water at pH 7.1
  solubility in water: insoluble
[1]
  pH after dissolution: 6.20
  Solubility: < 1 µg/mL
[2]
  dependence of indacaterol solubility on pH: increase with decreasing pH
[3]; Acidic Hydrolysis (1M HCl), 15 h
  Total Peak Area (%): 99.79%
[3]; [4]
  Indacaterol (%): 92.54%
  Total Impurities* (%): 7.25%
[3]; Acidic Hydrolysis (1M HCl), 15 h vs T0
  Indacaterol (%), Change in % peak: −3.27%
[3]; Acidic Hydrolysis (1M HCl), T0
  Indacaterol (%): 95.81%
  Total Peak Area (%): 99.82%
  Total Impurities* (%): 4.01%
[3]; Basic Hydrolysis (1M NaOH), 15 h
  Total Peak Area (%): 99.75%
[3]; [5]
  Indacaterol (%): 92.06%
  Total Impurities* (%): 7.69%
[3]; Basic Hydrolysis (1M NaOH), 15 h vs T0
  Indacaterol (%), Change in % peak: −3.76%
[3]; Basic Hydrolysis (1M NaOH), T0
  Indacaterol (%): 95.82%
  Total Peak Area (%): 99.81%
  Total Impurities* (%): 3.99%
[3]; Control, T0
  Total Peak Area (%): 99.85%
  Total Impurities* (%): 1.81%
[3]; Control, T0, 10 μg/mL in MeOH:H2O (50:50), ambient temperature
  Indacaterol (%): 98.04%
[3]; Oxidation (1.2% H2O2), 7 h
  Indacaterol (%): 97.03%
  Total Peak Area (%): 99.89%
  Total Impurities* (%): 2.77%
[3]; Oxidation (1.2% H2O2), 29 h
  Indacaterol (%): 90.76%
  Total Peak Area (%): 99.59%
  Total Impurities* (%): 8.83%
[3]; Oxidation (1.2% H2O2), 29 h, listed as indacaterol
  Total Impurities* (%): approximately 9%
[3]; Oxidation (1.2% H2O2), 29 h vs 7 h
  Indacaterol (%), Change in % peak: −6.27%
[3]; forced degradation experiment, staggered chromatogram
  degradation of indacaterol samples in aqueous solutions over time (FIG. 1): minimal degradation
